# Measurements as given in patent US20070112042A1, “Topical agent for application to the skin prior to luminous treatment” (priority 2003, published 2007).
# System: dermal collagen production
# Details: topical Niacin plus 585 nm pulsed dye laser irradiation versus irradiation alone
# From the text: Tests have been carried out for studying the dermal collagen production following topical application of Niacin prior to irradiation with a 585 nm pulsed dye laser.
smiles,measurement,value
"O=C(O)c1cccnc1 [Niacin, nicotinic acid]",PIIINP levels (biochemical analysis),increase in the PIIINP levels above that of irradiation alone
